Source: patent publication US9585877B2, “Methods of maintaining, treating or improving cognitive function” (Forum Pharmaceuticals, Inc., priority 2012, dated 2017)

Key:
Type in all cases: in vivo, human
[1] = test system: subjects with mild-to-moderate Alzheimer's disease; assay: Clinical study, Memory composite score
Method: (§1) A double-blind study of 3 doses of the Test Composition or placebo in subjects with mild-to-moderate Alzheimer's disease, with or without receiving a concomitant AChEI for 24 weeks (168 days) after a 7 day placebo run-in period.
(§2) Subjects with mild to moderate Alzheimer's disease receiving stable treatment with an AChEI (donepezil or rivastigmine: ‘add-on’ subjects) or not receiving an AChEI (de novo subjects′) received 0.3, 1, or 2 mg doses of Test Composition or placebo for up to 24 weeks (168 days) of double-blind treatment, after a 7-day single-blind, placebo run-in period to assess study drug compliance. A follow-up telephone contact was conducted approximately 15 days after the last dose of study drug for questions regarding safety.
(§3) These analyses were prespecified in the analytical plan (ITT population), and included the following: Cognition composite score (ADAS-cog Word Recall, Word Recognition, & Orientation, and COWAT and CFT), Memory composite score (ADAS-cog Word Recall, Word Recognition, and Orientation), and Executive Function composite score (COWAT and CFT).
(§4) Composite Scores—Three composite scores were calculated: (1) Composite Cognition Score (ADAS-cog Word Recall, Word Recognition, and Orientation, COWAT and CFT); (2) Memory Composite Score (ADAS-cog Word Recall, Word Recognition, and Orientation); and (3) Executive Function Composite Score (COWAT and CFT).
(§5) The composite score is only computed when all test scores are available.

[2] = test system: subjects with mild-to-moderate Alzheimer's disease; assay: Clinical study, ADAS-Cog-11
Method: as §1
(§6) Total number of subjects in the safety population was 409 subjects that were dosed once-daily with a dosing-capsule for a period of 168 days. The subjects dosed, and the particular dosing, included: 104 subjects dosed with Placebo capsule; and 305 subjects dosed with Test Compound (104 subjects with 0.3 mg capsules; 101 subjects with 1 mg capsules; and 100 subjects with 2 mg capsules).
(§7) The population included generally healthy male or female subjects, aged 50 to ≦85 years, with mild-to-moderate Alzheimer's disease, consistent with criteria defined by a Work Group of the National Institute of Neurological and Communicative Disorders and Stroke—Alzheimer's Disease and Related Disorders Association, of mild to moderate severity, with a Mini-Mental State Examination score (MMSE) 14 and ≦24, and a Clinical Dementia Rating Scale Sum of the Boxes (CDR-SB) score of 2. […] Subjects were required to be either receiving a stable dose of an AChEI (donepezil or rivastigmine) for at least 3 months before screening or not presently being treated with an AChEI or mementine for at least 30 days.
as §2
Cognitive Part of the Alzheimer's Disease Assessment Scale (ADAS-Cog-11)
The ADAS-cog-11 test employed herein is based on the procedure developed in the adapted version of the Administration and Scoring Manual for the Alzheimer's Disease Assessment Scale, 1994 Revised Edition, Richard C. Mohs, Ph.D., © 1994 by The Mount Sinai School of Medicine, manual modified by Donald Connor, Ph.D., and Kimberly Schafer, M.S. (3/98).
The ADAS-cog-11 test includes the following test items: (1) Word Recall, (2) Naming Objects/Fingers, (3) Commands, (4) Construction Praxis, (5) Ideational Praxis, (6) Orientation, (7) Word Recognition, (8) Remembering Test Instructions, (9) Spoken Language Ability, (10) Word Finding Difficulty, and (11) Comprehension.
The ADAS-cog-11 total score ranges from 0 to 70 (higher scores indicate more severe impairment). A decrease from baseline indicates improvement.

[3] = test system: subjects with mild-to-moderate Alzheimer's disease; assay: Clinical study, Cognition composite score
Method: as §1, §2, §3, §4, §5

[4] = test system: subjects with mild-to-moderate Alzheimer's disease; assay: Clinical study, Executive Function composite score; conditions: for Executive function composite score Effect Size: over a 23 week period
Method: as §1, §2, §3, §4, §5

[5] = test system: subjects with mild-to-moderate Alzheimer's disease; assay: Clinical study, Mini-Mental State Examination (MMSE)
Method: as §1, §6, §7, §2
Mini-Mental State Examination (MMSE)
The MMSE test employed herein is based on the procedure developed by Folstein, M., Folstein, S., McHugh, P. Mini-Mental State: “A Practical Method for Grading the Cognitive State of Patients for the Clinician”; Journal of Psychiatric Research 1975, 12:189-98.
The MMSE test assesses and/or evaluates memory, orientation, recognition, attention, concentration, language, and praxis. The MMSE total score ranges from 0 to 30 points. Lower scores indicate a lower level of functioning. An increase from baseline indicates improvement.

[6] = 2 mg versus placebo, over a 23 week period

In the case of `Cl.O.O=C(N[C@H]1CN2CCC1CC2)c1cc2cccc(Cl)c2s1` [Test Compound, (R)-7-chloro-N-(quinuclidin-3-yl)benzo[b]thiophene-2-carboxamide, hydrochloride, monohydrate], the “Memory Composite Score (Baseline was assigned the value of zero @ Week 0)” value ([1]; 0.3 mg daily dose, Week 4) was −0.0084, the “Memory Composite Score (Baseline was assigned the value of zero @ Week 0)” value ([1]; 0.3 mg daily dose, Week 12) was −0.0108 and the “Memory Composite Score (Baseline was assigned the value of zero @ Week 0)” value ([1]; 0.3 mg daily dose, Week 18) was −0.0294. The “Memory Composite Score (Baseline was assigned the value of zero @ Week 0)” value ([1]; 0.3 mg daily dose, Week 23) was −0.0645, the “Memory Composite Score (Baseline was assigned the value of zero @ Week 0)” value ([1]; 1 mg daily dose, Week 4) was −0.0062 and the “Memory Composite Score (Baseline was assigned the value of zero @ Week 0)” value ([1]; 1 mg daily dose, Week 12) was 0.08. The “Memory Composite Score (Baseline was assigned the value of zero @ Week 0)” value ([1]; 1 mg daily dose, Week 18) was −0.0456, the “Memory Composite Score (Baseline was assigned the value of zero @ Week 0)” value ([1]; 1 mg daily dose, Week 23) was 0.0113 and the “Memory Composite Score (Baseline was assigned the value of zero @ Week 0)” value ([1]; 2 mg daily dose, Week 4) was −0.0032. For the same molecule, the “Memory Composite Score (Baseline was assigned the value of zero @ Week 0)” value ([1]; 2 mg daily dose, Week 12) was 0.1021, the “Memory Composite Score (Baseline was assigned the value of zero @ Week 0)” value ([1]; 2 mg daily dose, Week 18) was 0.117 and the “Memory Composite Score (Baseline was assigned the value of zero @ Week 0)” value ([1]; 2 mg daily dose, Week 23) was 0.169. The “Memory composite score Effect Size” value [1, 6] was 0.37, the “ADAS-Cog-11 (Baseline was assigned the value of zero @ Week 0)” value ([2]; 0.3 mg daily dose, Week 4) was −0.3534 and the “ADAS-Cog-11 (Baseline was assigned the value of zero @ Week 0)” value ([2]; 0.3 mg daily dose, Week 12) was −0.2129. The “ADAS-Cog-11 (Baseline was assigned the value of zero @ Week 0)” value ([2]; 0.3 mg daily dose, Week 18) was −0.067, the “ADAS-Cog-11 (Baseline was assigned the value of zero @ Week 0)” value ([2]; 0.3 mg daily dose, Week 23) was 0.2755 and the “ADAS-Cog-11 (Baseline was assigned the value of zero @ Week 0)” value ([2]; 1 mg daily dose, Week 4) was −0.3412. The “ADAS-Cog-11 (Baseline was assigned the value of zero @ Week 0)” value ([2]; 1 mg daily dose, Week 12) was −0.8317, the “ADAS-Cog-11 (Baseline was assigned the value of zero @ Week 0)” value ([2]; 1 mg daily dose, Week 18) was 0.1063 and the “ADAS-Cog-11 (Baseline was assigned the value of zero @ Week 0)” value ([2]; 1 mg daily dose, Week 23) was 0.3534. The “ADAS-Cog-11 (Baseline was assigned the value of zero @ Week 0)” value ([2]; 2 mg daily dose, Week 4) was −0.0031, the “ADAS-Cog-11 (Baseline was assigned the value of zero @ Week 0)” value ([2]; 2 mg daily dose, Week 12) was −0.998 and the “ADAS-Cog-11 (Baseline was assigned the value of zero @ Week 0)” value ([2]; 2 mg daily dose, Week 18) was −1.1519. For the same molecule, the “ADAS-Cog-11 (Baseline was assigned the value of zero @ Week 0)” value ([2]; 2 mg daily dose, Week 23) was −1.1188, the “ADAS-Cog 11 Effect Size” value ([2]; 2 mg dose versus Placebo) was 0.34 and the “Cognition Composite Score (Baseline was assigned the value of zero @ Week 0)” value ([3]; 0.3 mg daily dose, Week 4) was 0.0036. For the same molecule, the “Cognition Composite Score (Baseline was assigned the value of zero @ Week 0)” value ([3]; 0.3 mg daily dose, Week 12) was 0.0171, the “Cognition Composite Score (Baseline was assigned the value of zero @ Week 0)” value ([3]; 0.3 mg daily dose, Week 18) was −0.0245 and the “Cognition Composite Score (Baseline was assigned the value of zero @ Week 0)” value ([3]; 0.3 mg daily dose, Week 23) was −0.0451. The “Cognition Composite Score (Baseline was assigned the value of zero @ Week 0)” value ([3]; 1 mg daily dose, Week 4) was 0.0042, the “Cognition Composite Score (Baseline was assigned the value of zero @ Week 0)” value ([3]; 1 mg daily dose, Week 12) was 0.0804 and the “Cognition Composite Score (Baseline was assigned the value of zero @ Week 0)” value ([3]; 1 mg daily dose, Week 18) was −0.0102. For the same molecule, the “Cognition Composite Score (Baseline was assigned the value of zero @ Week 0)” value ([3]; 1 mg daily dose, Week 23) was 0.0287, the “Cognition Composite Score (Baseline was assigned the value of zero @ Week 0)” value ([3]; 2 mg daily dose, Week 4) was −0.0084 and the “Cognition Composite Score (Baseline was assigned the value of zero @ Week 0)” value ([3]; 2 mg daily dose, Week 12) was 0.0513. The “Cognition Composite Score (Baseline was assigned the value of zero @ Week 0)” value ([3]; 2 mg daily dose, Week 18) was 0.0915, the “Cognition Composite Score (Baseline was assigned the value of zero @ Week 0)” value ([3]; 2 mg daily dose, Week 23) was 0.1276 and the “Cognition composite score Effect Size” value [3, 6] was 0.42. For the same molecule, the “Executive Function Composite Score (Baseline was assigned the value of zero @ Week 0)” value ([4]; 0.3 mg daily dose, Week 4) was 0.0074, the “Executive Function Composite Score (Baseline was assigned the value of zero @ Week 0)” value ([4]; 0.3 mg daily dose, Week 12) was 0.0391 and the “Executive Function Composite Score (Baseline was assigned the value of zero @ Week 0)” value ([4]; 0.3 mg daily dose, Week 18) was −0.0224. The “Executive Function Composite Score (Baseline was assigned the value of zero @ Week 0)” value ([4]; 0.3 mg daily dose, Week 23) was −0.0153, the “Executive Function Composite Score (Baseline was assigned the value of zero @ Week 0)” value ([4]; 1 mg daily dose, Week 4) was 0.0202 and the “Executive Function Composite Score (Baseline was assigned the value of zero @ Week 0)” value ([4]; 1 mg daily dose, Week 12) was 0.0609. For the same molecule, the “Executive Function Composite Score (Baseline was assigned the value of zero @ Week 0)” value ([4]; 1 mg daily dose, Week 18) was 0.0418, the “Executive Function Composite Score (Baseline was assigned the value of zero @ Week 0)” value ([4]; 1 mg daily dose, Week 23) was 0.0476 and the “Executive function composite score Effect Size” value ([4]; 1 mg versus placebo) was 0.32. The “Executive Function Composite Score (Baseline was assigned the value of zero @ Week 0)” value ([4]; 2 mg daily dose, Week 4) was −0.0311, the “Executive Function Composite Score (Baseline was assigned the value of zero @ Week 0)” value ([4]; 2 mg daily dose, Week 12) was −0.0452 and the “Executive Function Composite Score (Baseline was assigned the value of zero @ Week 0)” value ([4]; 2 mg daily dose, Week 18) was 0.0188. For the same molecule, the “Executive Function Composite Score (Baseline was assigned the value of zero @ Week 0)” value ([4]; 2 mg daily dose, Week 23) was 0.0244, the “Executive function composite score Effect Size” value ([4]; 2 mg versus placebo) was 0.27 and the “MMSE (Baseline was assigned the value of zero @ Week 0)” value ([5]; 0.3 mg daily dose, Week 4) was −0.0411. The “MMSE (Baseline was assigned the value of zero @ Week 0)” value ([5]; 0.3 mg daily dose, Week 12) was 0.185, the “MMSE (Baseline was assigned the value of zero @ Week 0)” value ([5]; 0.3 mg daily dose, Week 18) was −0.3601 and the “MMSE (Baseline was assigned the value of zero @ Week 0)” value ([5]; 0.3 mg daily dose, Week 23) was −0.3112. The “MMSE (Baseline was assigned the value of zero @ Week 0)” value ([5]; 1 mg daily dose, Week 4) was 0.9142, the “MMSE (Baseline was assigned the value of zero @ Week 0)” value ([5]; 1 mg daily dose, Week 12) was 0.7836 and the “MMSE (Baseline was assigned the value of zero @ Week 0)” value ([5]; 1 mg daily dose, Week 18) was 0.7253. The “MMSE (Baseline was assigned the value of zero @ Week 0)” value ([5]; 1 mg daily dose, Week 23) was 0.4416, the “MMSE (Baseline was assigned the value of zero @ Week 0)” value ([5]; 2 mg daily dose, Week 4) was 0.5262 and the “MMSE (Baseline was assigned the value of zero @ Week 0)” value ([5]; 2 mg daily dose, Week 12) was 0.3526. For the same molecule, the “MMSE (Baseline was assigned the value of zero @ Week 0)” value ([5]; 2 mg daily dose, Week 18) was 0.723, the “MMSE (Baseline was assigned the value of zero @ Week 0)” value ([5]; 2 mg daily dose, Week 23) was 0.5139 and the “MMSE Effect Size” value ([5]; 2 mg dose versus Placebo) was 0.21.
